This is an account of results in US10975119B2, “Selective cysteine protease inhibitors and uses thereof” (Genesis Technologies Limited, priority 2011, dated 2021).

The structures appear in SMILES notation. Counter-ions that a name gives are not always drawn. Like-named read-outs stand apart in the source and are kept apart here.

Holding throughout (assay type): biochemical
Assay [1] concerns the target T1, Caspase-1 (Homo sapiens, UniProt P29466).
T1 construct: mixing the compounds with the respective active caspases; purchased BioVision K151-100
T1 sequence (P29466 120-297 limits assumed): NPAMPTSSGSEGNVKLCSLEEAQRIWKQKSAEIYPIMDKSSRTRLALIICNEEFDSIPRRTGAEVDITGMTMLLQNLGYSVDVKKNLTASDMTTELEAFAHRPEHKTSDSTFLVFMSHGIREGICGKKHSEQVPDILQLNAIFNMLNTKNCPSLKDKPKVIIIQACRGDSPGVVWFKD
T1 sequence (P29466 317-404 limits assumed): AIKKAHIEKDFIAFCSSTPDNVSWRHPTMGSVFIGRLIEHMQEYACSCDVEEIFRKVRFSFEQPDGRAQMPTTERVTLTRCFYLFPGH
The experiment in a line: Caspase-1 inhibitor screening assay (BioVision kit, YVAD-AFC). Conditions: for inhibition at 10 µM: read-out: % Inhibition at 10 uM Casp1; for inhibition at 100 µM: read-out: % Inhibition at 100 uM Casp1; for IC50: read-out: IC50 Casp1. How it is done: (§1) The efficacy of an array of compounds as an inhibitor of the activity of Caspases 1 through 10 were assessed by using the respective Caspase Inhibitor Drug Screening Kits (Caspase-1 Catalog #: K151-100, Caspase-2 Catalog #: K152-100, Caspase-3 Catalog #: K153-100, Caspase-4 Catalog #: K154-100, Caspase-5 Catalog #: K155-100, Caspase-6 Catalog #: K156-100, Caspase-7 Catalog #: K157-100, Caspase-8 Catalog #: K158-100, Caspase-9 Catalog #: K159-100, Caspase-10 Catalog #: K160-100, BioVision) following the instructions of the manufacturer. […] Active caspases cleaved their respective synthetic substrates to release free AFC, which was then quantified by fluorometry.
(§2) Briefly, the compounds were first tested at 2 concentrations (10 uM and 100 uM final) to determine if there is a hit. […] Each condition was tested in duplicates. […] For some samples, a smaller range of concentrations was tested depending on the % Inhibition results at 10 uM and 100 uM. Results were summarized in Tables 2, 3, and 4 herein after. Table 2 represents the IC50 values (uM) of the test compounds as inhibitors of the activity of the various caspases.
(§3) (*) RFU (no inhibitor control)—RFU (compound at a specific concentration)
(§4) RFU (no inhibitor control)

Assay [2] addresses T2, Caspase-7 (Homo sapiens, UniProt P55210).
T2 construct: mixing the compounds with the respective active caspases; purchased BioVision K157-100
T2 sequence (P55210 24-198 limits assumed): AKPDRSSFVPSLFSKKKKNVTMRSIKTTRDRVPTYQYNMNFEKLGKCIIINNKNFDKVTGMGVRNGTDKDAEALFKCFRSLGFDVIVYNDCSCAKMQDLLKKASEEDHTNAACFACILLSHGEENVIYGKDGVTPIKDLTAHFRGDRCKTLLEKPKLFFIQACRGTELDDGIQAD
T2 sequence (P55210 207-303 limits assumed): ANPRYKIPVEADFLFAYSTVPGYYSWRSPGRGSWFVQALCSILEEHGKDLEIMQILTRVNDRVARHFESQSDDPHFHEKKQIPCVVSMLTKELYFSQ
The experiment in a line: Caspase-7 inhibitor screening assay (BioVision kit, DEVD-AFC). The settings on record: for inhibition at 10 µM: read-out: % Inhibition at 10 uM Casp7; for inhibition at 100 µM: read-out: % Inhibition at 100 uM Casp7; for IC50: read-out: IC50 Casp7. Here is the method:
as §1, §2, §3, §4

The target of assay [3] is T3, Caspase-9 (Homo sapiens, UniProt P55211).
T3 construct: purchased BioVision K159-100
T3 sequence (P55211 1-315 limits assumed): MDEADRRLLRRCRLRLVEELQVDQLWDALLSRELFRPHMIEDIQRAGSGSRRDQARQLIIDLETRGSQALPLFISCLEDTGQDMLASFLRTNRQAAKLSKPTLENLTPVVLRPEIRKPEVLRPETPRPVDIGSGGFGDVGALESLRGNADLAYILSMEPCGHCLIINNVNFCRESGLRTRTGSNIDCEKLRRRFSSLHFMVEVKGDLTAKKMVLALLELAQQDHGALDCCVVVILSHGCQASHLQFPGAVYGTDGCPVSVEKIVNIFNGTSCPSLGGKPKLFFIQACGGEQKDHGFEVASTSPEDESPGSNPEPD
T3 sequence (P55211 331-416 limits assumed): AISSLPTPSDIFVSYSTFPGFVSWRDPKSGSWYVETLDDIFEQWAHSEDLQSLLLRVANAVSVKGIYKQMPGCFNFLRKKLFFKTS
The experiment in a line: Caspase-9 inhibitor screening assay (BioVision kit, LEHD-AFC). Conditions: for inhibition at 10 µM: read-out: % Inhibition at 10 uM Casp9; for inhibition at 100 µM: read-out: % Inhibition at 100 uM Casp9; for IC50: read-out: IC50 Casp9. Here is the method:
as §1, §2, §3, §4

Assay [4] concerns the target T4, Caspase-2 (Homo sapiens, UniProt P42575).
T4 construct: mixing the compounds with the respective active caspases; purchased BioVision K152-100
T4 sequence (P42575 170-325 limits assumed): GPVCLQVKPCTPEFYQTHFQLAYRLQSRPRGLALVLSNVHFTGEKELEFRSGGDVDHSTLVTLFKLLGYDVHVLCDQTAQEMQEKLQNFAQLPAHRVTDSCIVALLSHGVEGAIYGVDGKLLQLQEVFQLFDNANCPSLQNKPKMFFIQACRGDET
T4 sequence (P42575 334-452 limits assumed): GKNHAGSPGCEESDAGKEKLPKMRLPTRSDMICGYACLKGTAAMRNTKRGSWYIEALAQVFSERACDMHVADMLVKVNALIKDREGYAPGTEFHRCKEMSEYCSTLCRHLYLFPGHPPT
The experiment in a line: Caspase-2 inhibitor screening assay (BioVision kit, VDVAD-AFC). Conditions: for inhibition at 10 µM: read-out: % Inhibition at 10 uM Casp2; for inhibition at 100 µM: read-out: % Inhibition at 100 uM Casp2; for IC50: read-out: IC50 Casp2. Here is the method: as §1, §2, §3, §4

For the compound `CC(C)[C@H](NC(=O)[C@@H](N)Cc1ccc(O)cc1)C(=O)N[C@@H](C)C(=O)N[C@H](/C=C/S(C)(=O)=O)CC(=O)O` [Compound 42, Tyr-Val-Ala-Asp methyl vinyl sulfone], the inhibition at 10 µM in assay [1] is 26%; in assay [2] (10 uM) it was 0%; in assay [3] (10 uM), 0%; in assay [4], 0%. Besides, the inhibition at 100 µM in assay [1] came to 72%; in assay [2] (100 uM), 0%; in assay [3] (100 uM), 26%; in assay [4], 0%. The half-inhibitory concentration (IC50) in assay [1] is 33.8 µM; in assay [2] it was greater than 100 µM; in assay [3] it was greater than 100 µM; in assay [4], greater than 100 µM.

In the case of `CS(=O)(=O)/C=C/[C@H](CC(=O)O)NC(=O)[C@H]1CCC(=O)N1` [Compound 24, (2-Pyrrolidinone-5-carbonyl)-Asp methyl vinyl sulfone], the inhibition at 10 µM was determined as 3% in assay [1], 1% in assay [2] (10 uM), 0% in assay [3] (10 uM) and 0% in assay [4]. For the same compound, the inhibition at 100 µM in assay [1] was found to be 10%; in assay [2] (100 uM) it was 0%; in assay [3] (100 uM), 0%; in assay [4], 0%. Also, the IC50 in assay [1], in assay [2], in assay [3] and in assay [4] was greater than 100 µM in each case.

Consider `CS(=O)(=O)/C(Cl)=C/[C@@H](N)CC(=O)O` [Compound 4, Asp achlorovinyl methyl vinyl sulfone, Tosyl Salt], for which the inhibition at 10 µM in assay [1], in assay [2], in assay [3] and in assay [4] was 0% each time. Further, the inhibition at 100 µM in assay [1], in assay [2], in assay [3] and in assay [4] was 0% each time. The IC50 in assay [1], in assay [2], in assay [3] and in assay [4] was greater than 100 µM in each case.

`CS(=O)(=O)/C=C/[C@H](CC(=O)O)NC(=O)[C@H](CCC(=O)O)NC(=O)c1ccc2ccccc2n1` [Compound 18, 2-Quinoline carbonyl-Glu-Asp methyl vinyl sulfone]: the inhibition at 10 µM is 1% in assay [1], 0% in assay [2] (10 uM), 0% in assay [3] (10 uM) and 0% in assay [4]. Besides, the inhibition at 100 µM in assay [1] was determined as 1%; in assay [2] (100 uM) it was 7%; in assay [3] (100 uM), 9%; in assay [4], 0%. Also, the half-inhibitory concentration (IC50) in assay [1], in assay [2], in assay [3] and in assay [4] was greater than 100 µM each time.

For the compound `CCC(C)[C@H](NC(=O)[C@H](CCC(=O)O)NC(=O)[C@@H](NC(=O)OCc1ccccc1)C(C)C)C(=O)N[C@H](/C=C/S(C)(=O)=O)CC(=O)O` (stereo partly drawn) [Compound 38, Z-Val-Glu-Ile-Asp-methyl vinyl sulfone], the inhibition at 10 µM in assay [1] was found to be 81%; in assay [2] (10 uM) it was 0%; in assay [3] (10 uM) it was 82%; in assay [4], 2%. The inhibition at 100 µM came out at 97% in assay [1], 31% in assay [2] (100 uM), 97% in assay [3] (100 uM) and 4% in assay [4]. The IC50 in assay [1] worked out at 2.7 µM; in assay [3], 0.79 µM.

Turning to `CC(C)(C)[C@@H](NC(=O)[C@H](CC(=O)O)NC(=O)OCc1ccccc1)C(=O)N1CC[C@@H]1C(=O)N[C@H](/C=C/S(C)(=O)=O)CC(=O)O` [Compound 32, Z-Asp-t-Leu-(Azetidine-2-carbonyl)-Asp-methyl vinyl sulfone], the inhibition at 10 µM came to 44% in assay [1], 97% in assay [2] (10 uM), 91% in assay [3] (10 uM) and 43% in assay [4]. Moreover, the inhibition at 100 µM in assay [1] stood at 86%; in assay [2] (100 uM), 100%; in assay [3] (100 uM) it was 100%; in assay [4], 86%. In addition, the IC50 in assay [1] is 13.3 µM; in assay [2], 0.55 µM; in assay [3], 1.12 µM; in assay [4], 13.1 µM.

In the case of `CC(C)(C)[C@H](NC(=O)c1ccc2ccccc2n1)C(=O)N1CC[C@@H]1C(=O)N[C@H](/C=C/S(C)(=O)=O)CC(=O)O` [Compound 20, 2-Quinoline carbonyl-t-Leu-(Azetidine-2-carbonyl)-Asp methyl vinyl sulfone], the inhibition at 10 µM in assay [1] came to 81%; in assay [2] (10 uM), 0%; in assay [3] (10 uM), 8%; in assay [4], 7%. The inhibition at 100 µM in assay [1] was 99%; in assay [2] (100 uM), 0%; in assay [3] (100 uM) it was 44%; in assay [4] it was 6%. In addition, the IC50 is 1.4 µM in assay [1], greater than 100 µM in assay [2], greater than 100 µM in assay [3] and greater than 100 µM in assay [4].

Regarding `CC(C)[C@H](NC(=O)[C@@H](NC(=O)[C@H](CC(=O)O)NC(=O)OCc1ccccc1)c1ccccc1)C(=O)N[C@H](/C=C/S(C)(=O)=O)CCC(=O)O` [Compound 84, Z-Asp-Phg-Val-Glu methyl vinyl sulfone], the inhibition at 10 µM is 0% in assay [1], 9% in assay [2] (10 uM), 0% in assay [3] (10 uM) and 0% in assay [4]. Further, the inhibition at 100 µM in assay [1] was 0%; in assay [2] (100 uM), 76%; in assay [3] (100 uM), 6%; in assay [4] it was 3%. The IC50 is greater than 100 µM in assay [1], 49.9 µM in assay [2], greater than 100 µM in assay [3] and greater than 100 µM in assay [4].

Take `CCOC(=O)/C=C/[C@@H](N)CC(=O)O` [Compound 44, Asp ethyl vinyl ester tosyl salt]: the inhibition at 10 µM in assay [1], in assay [2] (10 uM), in assay [3] (10 uM) and in assay [4] was 0% in each case. Moreover, the inhibition at 100 µM was determined as 0% in assay [1], 0% in assay [2] (100 uM), 0% in assay [3] (100 uM) and 3% in assay [4]. For the same compound, the IC50 in assay [1], in assay [2], in assay [3] and in assay [4] was greater than 100 µM each time.

In general, inhibition refers to the percentage by which the read-out fell short of the control. The IC50 is the concentration at which inhibition is half-maximal.
